The test system of this assay is whey sensitized animals. Put plainly: Mouse model of whey protein allergy: ear swelling after oral pretreatment with peptide mixtures (Example 4). As to conditions: Example 4, pretreatment prior to whey sensitization. It is filed as in vivo, mice. From the text:
Three- to four-week-old pathogen free female C3H/HeOuJ mice (Charles River Laboratories, Maastricht, The Netherlands) were used for this experiment. The mice were maintained on cow's milk protein free standard mouse chow (AIN-93G soy, Special Diets Services, Wijk bij Duurstede, the Netherlands).
The AIN-93G control diet was mixed with non-digestible oligosaccharides (2% w/w). The same non-digestible oligosaccharides were used as in example 1.
18-amino-acid-long synthetic peptides of beta-lactoglobulin were obtained from JPT Peptide Technologies (Berlin, Germany) (Table 4). Whey protein was purchased from DMV International (Veghel, The Netherlands). […]. Phosphate-buffered saline (PBS) was obtained from Cambrex Bio Science (Verviers, Belgium).
Shortly prior to the experiment, the peptides were suspended in PBS. The peptides were combined in three mixtures, namely peptides 1-4 in mixture 1, peptides 5-7 in mixture 2 and peptides 8 and 9 in mixture 3. The final concentration of each peptide in the mixture was 8 mg/ml. […] Before and 1 h after the challenge, the ear thickness was measured using a digital micrometer (Mitutoyo, Veenendaal, the Netherlands). The difference in the ear thickness (ear swelling) is an indication for the acute allergic response and is expressed as delta μm.

The record followed here is patent US9770460B2, “Non-digestible oligosaccharides for oral induction of tolerance against dietary proteins” (N.V. NUTRICIA, priority 2010, dated 2017).

Where no end group is shown, it is not given here.

For “AASDISLLDAQSAPLRVY [Peptide 3, beta-lactoglobulin AA 25-42]”, the “allergic response / synergy with NDO, in words” value is “did not show these synergistic effects with NDO”.
